Source: the supplement of paper PMC11208160

Test: recombinant barcode read abundance after kanamycin selection (control-corrected) (log10(CPM+1)); higher = more efficient recombination; sequences stand for … in AGTGCAGAGAAAATCGGCCAGTTTTCTCTGCCTGCAGTCCGCATGCCGT…AGATTTATGCAGCGGACTGCCTTTCTCCCAAAGTGATAAACCGGACAGTATCATGGACCGGTTTTCCCGGTAATCCGTATTTGCAAGGTTGGTTTCACT; site = the 11-nt target
Method in brief: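 IS621 bridge RNA target-binding loops were paired with targets in a pooled library tested in E. coli. After co-electroporation with a donor plasmid, cells were plated in two replicates on chloramphenicol/ampicillin LB agar (control) and on chloramphenicol/ampicillin/kanamycin carrying 0.1 mM IPTG. Barcodes at recombinant junctions were counted as counts per million, averaged and control-corrected to give recombination efficiency. Values are log10(CPM+1).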
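Also: IS621 recombinase and bridge RNA in Escherichia coli cells.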

Row | Sequence | recombinant barcode read abundance (log10)
1 | TCTCATTCTTGGGTTCTAACCTGTTGCGT (site TCTTATTCTAC) | 0.0829
2 | CTCGGATCTTGGGTTCTAACCTGTTGCTC (site CTCGGATCTAA) | 0
3 | TCCCAGTCTTGGGTTCTAACCTGTTGCTT (site TCCCAGTCTAC) | 0.0373
4 | GGAGGAACTTGGGTTCTAACCTGTTGCCT (site GGAGGTACTAG) | 0.1
5 | CCTGACTCTTGGGTTCTAACCTGTTGCAC (site CCTGACTCTGT) | 2.05
6 | CTATTGACTTGGGTTCTAACCTGTTGCCT (site CTATTGACTAG) | 1.42
7 | GCACATCCTTGGGTTCTAACCTGTTGCGT (site GCACATCCTAC) | 2.53
8 | ACGACTCCTTGGGTTCTAACCTGTTGCCT (site ACGACTACTAG) | 0.467
9 | CGAGTGTCTTGGGTTCTAACCTGTTGCTA (site GATCACCCTAT) | 0.0951
10 | CACTAGCCTTGGGTTCTAACCTGTTGCGG (site CACTAGCCTCC) | 2.41
11 | AAGACCTCTTGGGTTCTAACCTGTTGCTT (site AAGGCCTCTAA) | 0.255
12 | ACGTCTCCTTGGGTTCTAACCTGTTGCTG (site ACGGCTCCTCA) | 0.0879
13 | CTATTTACTTGGGTTCTAACCTGTTGCCT (site CTAGTTACTAG) | 0.19
14 | GACCGAGCTTGGGTTCTAACCTGTTGCCT (site GACCGGGCTAG) | 0.145
15 | TATCCGACTTGGGTTCTAACCTGTTGCCC (site TATCCGACTGG) | 0.688
16 | TGTTGGCCTTGGGTTCTAACCTGTTGCCT (site TGTTGGCCTAG) | 0.143
17 | TCCGAGCCTTGGGTTCTAACCTGTTGCGT (site TCCGAGCCTAC) | 2.18
18 | GAGCCACCTTGGGTTCTAACCTGTTGCCT (site CAGCCACCTAG) | 0.236
19 | CGAGCAGCTTGGGTTCTAACCTGTTGCCT (site CGTGCAGCTAG) | 0.0197
20 | AGTCTACCTTGGGTTCTAACCTGTTGCCT (site CGTCTACCTAG) | 0.0985
21 | CAGTCTGCTTGGGTTCTAACCTGTTGCCT (site CAGTCTGCTAG) | 0.512
22 | CGATGGCCTTGGGTTCTAACCTGTTGCAT (site CGATGGCCTAT) | 0.433

Row | Sequence | recombinant barcode read abundance (log10)
23 | GTTTCGGCTTGGGTTCTAACCTGTTGCCT (site GTTCCGGCTAG) | 0.357
24 | TAGTCCTCTTGGGTTCTAACCTGTTGCTG (site TAGTCCTCTAA) | 0.048
25 | AGGTCGTCTTGGGTTCTAACCTGTTGCCT (site ACGTCGTCTAG) | 0.146
26 | TCTTGTCCTTGGGTTCTAACCTGTTGCGT (site TCTTGTCCTCC) | 0.0386
27 | AAGTACACTTGGGTTCTAACCTGTTGCTG (site AAGTACACTCA) | 2.75
28 | TGTACGCCTTGGGTTCTAACCTGTTGCCT (site TGTACGCCTAG) | 0.0173
29 | TCGACGCCTTGGGTTCTAACCTGTTGCTT (site TCGACGCCTAA) | 0.145
30 | GAACGACCTTGGGTTCTAACCTGTTGCCT (site GAACGACCTAG) | 0.721
31 | TACATCCCTTGGGTTCTAACCTGTTGCCA (site TACATCCCTTG) | 0.358
32 | CTCCATACTTGGGTTCTAACCTGTTGCCT (site CTCCATACTAG) | 0.814
33 | GTTTCGACTTGGGTTCTAACCTGTTGCCT (site GTTTCGACTAG) | 0.128
34 | TCCAAGGCTTGGGTTCTAACCTGTTGCCT (site TCTAAGGCTAG) | 1.48
35 | ACCTGTCCTTGGGTTCTAACCTGTTGCCT (site ACCTGTCCTAG) | 0.986
36 | TAGGCCACTTGGGTTCTAACCTGTTGCAT (site TAGGCCACTAC) | 0.0809
37 | TGGTTCGCTTGGGTTCTAACCTGTTGCCT (site TGGTCCGCTAG) | 0.0365
38 | TAGTTTACTTGGGTTCTAACCTGTTGCCA (site TAGTTGACTTG) | 0.0764
39 | TACTTGCCTTGGGTTCTAACCTGTTGCCT (site TAGTTGCCTAG) | 0.653
40 | AAGCTTGCTTGGGTTCTAACCTGTTGCCT (site AAGCTTGCTAG) | 1.1
41 | ATGGTGACTTGGGTTCTAACCTGTTGCCT (site ATGGTGACTAG) | 1.21
42 | CTGATCCCTTGGGTTCTAACCTGTTGCGG (site CTGCTCCCTCC) | 0
43 | GGCGGAGCTTGGGTTCTAACCTGTTGCCG (site GGCGGAGCTCG) | 1.27
44 | TCCCGAACTTGGGTTCTAACCTGTTGCCT (site TCCCGACCTAG) | 0.337

Row | Sequence | recombinant barcode read abundance (log10)
45 | TGAATGTCTTGGGTTCTAACCTGTTGCCT (site TGAATGTCTAG) | 1.23
46 | CCTGCGACTTGGGTTCTAACCTGTTGCAC (site CCTGCGACTGT) | 0.219
47 | GGACGCACTTGGGTTCTAACCTGTTGCGG (site GGACGCACTCC) | 2.4
48 | GGACACTCTTGGGTTCTAACCTGTTGCTA (site GGACACTCTTA) | 2.15
49 | CTACTAGCTTGGGTTCTAACCTGTTGCAC (site CTACTAGCTAT) | 0.0299
50 | ACGAACGCTTGGGTTCTAACCTGTTGCCT (site ACGATCGCTAG) | 0.14
51 | GTGAGATCTTGGGTTCTAACCTGTTGCCT (site GTGAGATCTAG) | 1.06
52 | GATTAGACTTGGGTTCTAACCTGTTGCCT (site GATTAGACTAG) | 1.09
53 | CCTGGAACTTGGGTTCTAACCTGTTGCTT (site CCTGGAACTAA) | 0.418
54 | CTATTTACTTGGGTTCTAACCTGTTGCCT (site CTATTTACTAG) | 0.411
55 | CATTATCCTTGGGTTCTAACCTGTTGCGT (site CATTATCCTAC) | 1.59
56 | ACGGGGTCTTGGGTTCTAACCTGTTGCCT (site CCGGGGTCTAG) | 0.637
57 | TGAAGCCCTTGGGTTCTAACCTGTTGCTT (site TGAAACGCTAA) | 0.179
58 | GAGTCGTCTTGGGTTCTAACCTGTTGCTT (site GAGCCATCTAA) | 0.402
59 | CCGAAGCCTTGGGTTCTAACCTGTTGCCT (site CCGCAGCCTAG) | 0.256
60 | TCTGTAACTTGGGTTCTAACCTGTTGCCT (site TCTGTAACTAG) | 0.421
61 | GAACCTTCTTGGGTTCTAACCTGTTGCGG (site GAACCTTCTCC) | 0.93
62 | GAACGACCTTGGGTTCTAACCTGTTGCCT (site CAACGACCTAG) | 0.0122
63 | GGTGCTCCTTGGGTTCTAACCTGTTGCAC (site GGTGCTCCTAT) | 0.085
64 | CAGGGCCCTTGGGTTCTAACCTGTTGCCT (site CAGGGCCCTAG) | 2.14
65 | TCGCAGACTTGGGTTCTAACCTGTTGCCT (site CCGCAGACTTG) | 0.54
66 | CTCAATTCTTGGGTTCTAACCTGTTGCAA (site CTCAATTCTTT) | 0.0558

Row | Sequence | recombinant barcode read abundance (log10)
67 | TGGAGCCCTTGGGTTCTAACCTGTTGCAC (site TGGAGCCCTTT) | 0.0674
68 | CGTCAACCTTGGGTTCTAACCTGTTGCGT (site CGTTAACCTAC) | 0.242
69 | TAGCCGACTTGGGTTCTAACCTGTTGCTT (site TAGTCGACTAA) | 0.242
70 | GATGAGTCTTGGGTTCTAACCTGTTGCCT (site GATGAGTCTAG) | 1.9
71 | TTAGTTCCTTGGGTTCTAACCTGTTGCCT (site TTAGTGCCTAG) | 0
72 | TACTTAACTTGGGTTCTAACCTGTTGCCT (site TACTCAACTAG) | 0.00663
73 | TGGGACCCTTGGGTTCTAACCTGTTGCAT (site TGCGACCCTAA) | 0.261
74 | GATGCCTCTTGGGTTCTAACCTGTTGCCT (site GAAGCATCTAG) | 0.147
75 | AGAAAAGCTTGGGTTCTAACCTGTTGCAA (site CATGCTTCTAG) | 0.295
76 | CATCCGACTTGGGTTCTAACCTGTTGCCT (site CATCCGGCTAG) | 0.33
77 | AGTAATTCTTGGGTTCTAACCTGTTGCCT (site AGTAATTCTAG) | 0.454
78 | GTCAACCCTTGGGTTCTAACCTGTTGCGG (site GTCAACCCTCC) | 2.33
79 | CAGGGCCCTTGGGTTCTAACCTGTTGCCT (site GAGGGCCCTAG) | 0.527
80 | GGACCCTCTTGGGTTCTAACCTGTTGCAC (site GGACCCTCTGT) | 1.76
81 | CTTCGTCCTTGGGTTCTAACCTGTTGCCT (site CTTCGTCCTAT) | 0.0799
82 | GAGCGCTCTTGGGTTCTAACCTGTTGCAG (site GAGTGCTCTCT) | 0.0694
83 | CCTGCGGCTTGGGTTCTAACCTGTTGCCT (site CCTGCGGCTAG) | 0.15
84 | CGTGCGACTTGGGTTCTAACCTGTTGCAT (site CGTGCGACTAT) | 0.109
85 | CAATTGTCTTGGGTTCTAACCTGTTGCGT (site TAATTGTCTAC) | 0.151
86 | CAAGGGCCTTGGGTTCTAACCTGTTGCCT (site CAAAGGCCTAG) | 0.423
